According to patent US20170224683A1, “TREATMENT OF MELANOMA BY BLOCKING BENZAMIL SENSITIVE ION CHANNELS/EXCHANGERS” (The Board of Trustees of the Leland Stanford Junior …, priority 2014, published 2017):

Experiments:
Format in all cases: cell-based
CHL1 melanoma cell line = assay: MTT proliferation assay, CHL1; details: 50 uM
Experimental: (§1) FIG. 3A-3D: Benzamil reduce invasion and proliferation of melanoma cell lines expressing increased Rac1GTP. […] Stimulation with Benzamil at 50 uM was not toxic, but reduced proliferation in COLO829,MM485,CHL1 melanoma cell lines similar to V12 Rac1 mutant primary melanocytes FIG. 3D.
(§2) Benzamil reduce invasion and proliferation of melanoma cell lines expressing increased Rac1GTP. […] Stimulation with Benzamil at 50 μM was not toxic, but reduced proliferation in COLO829,MM485,CHL1 melanoma cell lines similar to V12 Rac1 mutant primary melanocytes.
(§3) MTT proliferation assay. 25000 melanocytes were plated in each well in a 96 well plate, and incubated with 100 ul DMEM with 10% FBS 1% AA for 24 hours. 10 ul MTT reagent (MTT proliferation assay, ATCC, Manassas, US) was added for 4 hours, 100 ul detergent was added to each well for 2 hours., and absorbance read at 570 nm (Spectramax M5, Molecular Devices, US), normalized to cell-free control absorbance.

[1] = test system: V12 Rac1 mutant primary foreskin-derived melanocytes; assay: MTT proliferation assay, V12 Rac1 melanocytes
Experimental: FIG. 1A-1C: Benzamil inhibits V12 Rac1 driven melanocyte invasion and proliferation in vitro. […] Invasion was abolished in conditions treated with 50 uM Benzamil (FIG. 1A, FIG. 1B).
Invasion was abolished in conditions treated with 50 μM Benzamil.
as §3

[2] = test system: COLO829 melanoma cell line; assay: MTT proliferation assay, COLO829; details: 50 uM
Experimental: as §1, §2, §3

MM485 melanoma cell line = assay: MTT proliferation assay, MM485; details: 50 uM
Experimental: as §1, §2, §3

SMILES: NC(=NCc1ccccc1)NC(=O)c1nc(Cl)c(N)nc1N [Benzamil, benzyl amiloride]
- toxicity (CHL1 melanoma cell line): not toxic
- Dosage tolerated in vitro (assessed by detectable proliferation) [1]: up to 100 uM
- toxicity [2]: not toxic
- toxicity (MM485 melanoma cell line): not toxic
